{"source": "patent US10787462B2", "about": "“Heterocyclic compound” (TAKEDA PHARMACEUTICAL COMPANY LIMITED, priority 2015, dated 2020)", "data": [{"biological_target": "T1, human RIPK1 (1-375) (Homo sapiens, UniProt Q13546)", "T1 construct": "human RIPK1 (1-375) gene; GST; made in house; host or cells: Sf-9 insect cells", "T1 sequence (Q13546 1-375)": "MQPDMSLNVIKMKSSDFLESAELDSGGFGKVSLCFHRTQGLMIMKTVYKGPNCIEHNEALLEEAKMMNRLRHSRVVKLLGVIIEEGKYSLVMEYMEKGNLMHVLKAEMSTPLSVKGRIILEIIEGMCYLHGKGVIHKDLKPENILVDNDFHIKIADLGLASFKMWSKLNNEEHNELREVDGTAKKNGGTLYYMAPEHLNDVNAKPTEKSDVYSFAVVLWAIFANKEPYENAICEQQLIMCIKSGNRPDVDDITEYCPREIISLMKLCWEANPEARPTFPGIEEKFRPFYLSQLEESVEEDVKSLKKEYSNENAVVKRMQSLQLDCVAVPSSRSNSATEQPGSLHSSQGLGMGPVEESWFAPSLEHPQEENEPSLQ", "test": "Human RIPK1 enzyme inhibitory effect (ADP-Glo Kinase Assay)", "assay_type": "biochemical", "details": "10 μM test compound; well without enzyme = 100% inhibition; 10 µM", "procedure,_shortened": "(§1)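 Human RIPK1 (1-375), GST-purified from Sf-9 cells, preincubated 20 min at room temperature with compound in 25 mM HEPES pH 7.5, 10 mM MgCl2, 0.01% Tween-20, 2 mM DTT. Reaction started with 0.6 mM ATP solution (stock), run 120 min at room temperature. ADP measured by ADP-Glo luminescence.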", "units": {"human RIPK1 enzyme inhibitory effect at 10 μM (% inhibition)": "%"}, "values": [{"compound": "CN1C(=O)C(N2CCc3c(nn(Cc4ccccc4)c3Cl)C2=O)CCc2ncccc21", "note": "(centres unmarked) [Example 65, 7-(2-benzyl-3-chloro-7-oxo-2,4,5,7-tetrahydro-6H-pyrazolo[3,4-c]pyridin-6-yl)-5-methyl-5,7,8,9-tetrahydro-6H-pyrido[3,2-b]azepin-6-one]", "human RIPK1 enzyme inhibitory effect at 10 μM (% inhibition)": 99}, {"compound": "CN1C(=O)C(N2CCc3c(nn(Cc4ccccc4)c3Cl)C2=O)CCc2ncccc21", "note": "(stereo not drawn) [Example 66, 7-(2-benzyl-3-chloro-7-oxo-2,4,5,7-tetrahydro-6H-pyrazolo[3,4-c]pyridin-6-yl)-5-methyl-5,7,8,9-tetrahydro-6H-pyrido[3,2-b]azepin-6-one (optical isomer)]", "human RIPK1 enzyme inhibitory effect at 10 μM (% inhibition)": 100}, {"compound": "CN1C(=O)C(N2CCc3c(nn(Cc4ccccc4)c3Cl)C2=O)CCc2ncccc21", "note": "(stereo not drawn) [Example 67, 7-(2-benzyl-3-chloro-7-oxo-2,4,5,7-tetrahydro-6H-pyrazolo[3,4-c]pyridin-6-yl)-5-methyl-5,7,8,9-tetrahydro-6H-pyrido[3,2-b]azepin-6-one (optical isomer)]", "human RIPK1 enzyme inhibitory effect at 10 μM (% inhibition)": 73}]}, {"biological_target": "T1, human RIPK1 (1-375)", "test": "Human RIPK1 enzyme inhibitory effect (ADP-Glo Kinase Assay)", "assay_type": "biochemical", "details": "read-out: human RIPK1 enzyme inhibitory effect at 10 μM (% inhibition), 10 μM test compound; well without enzyme = 100% inhibition", "procedure,_shortened": "as §1", "units": {"inhibition at 10 µM": "%"}, "values": [{"compound": "CN1C(=O)[C@@H](N2CCc3c(nn(Cc4ccccc4)c3Cl)C2=O)COc2cc(C(=O)O)ccc21", "note": "[Example 61, (3S)-3-(2-benzyl-3-chloro-7-oxo-2,4,5,7-tetrahydro-6H-pyrazolo[3,4-c]pyridin-6-yl)-5-methyl-4-oxo-2,3,4,5-tetrahydro-1,5-benzoxazepine-8-carboxylic acid]", "inhibition at 10 µM": 100}, {"compound": "CN1C(=O)[C@@H](N2CCc3c(nn(Cc4ccccc4)c3Cl)C2=O)COc2cc(C(=O)NCC(C)(C)O)ccc21", "note": "[Example 62, (3S)-3-(2-benzyl-3-chloro-7-oxo-2,4,5,7-tetrahydro-6H-pyrazolo[3,4-c]pyridin-6-yl)-N-(2-hydroxy-2-methylpropyl)-5-methyl-4-oxo-2,3,4,5-tetrahydro-1,5-benzoxazepine-8-carboxamide]", "inhibition at 10 µM": 101}, {"compound": "CN1C(=O)[C@@H](N2CCc3c(nn(Cc4ccccc4)c3Cl)C2=O)COc2cc(C(N)=O)ccc21", "note": "[Example 64, (3S)-3-(2-benzyl-3-chloro-7-oxo-2,4,5,7-tetrahydro-6H-pyrazolo[3,4-c]pyridin-6-yl)-5-methyl-4-oxo-2,3,4,5-tetrahydro-1,5-benzoxazepine-8-carboxamide]", "inhibition at 10 µM": 101}, {"compound": "CC1Cc2cn(Cc3ccccc3)nc2C(=O)N1[C@H]1COc2ccccc2N(C)C1=O", "note": "(stereo partly drawn) [Example 68, (3S)-3-(2-benzyl-5-methyl-7-oxo-2,4,5,7-tetrahydro-6H-pyrazolo[3,4-c]pyridin-6-yl)-5-methyl-2,3-dihydro-1,5-benzoxazepin-4(5H)-one]", "inhibition at 10 µM": 100}, {"compound": "CN1C(=O)[C@@H](N2CCc3cn(Cc4ccccc4)nc3C2=O)CS(=O)(=O)c2ccccc21", "note": "[Example 69, (3R)-3-(2-benzyl-7-oxo-2,4,5,7-tetrahydro-6H-pyrazolo[3,4-c]pyridin-6-yl)-5-methyl-2,3-dihydro-1,5-benzthiazepin-4(5H)-one 1,1-dioxide]", "inhibition at 10 µM": 99}, {"compound": "CN1C(=O)[C@@H](N2CCc3nn(Cc4ccccc4)cc3C2=O)COc2ccccc21", "note": "[Example 70, (3S)-3-(2-benzyl-4-oxo-2,4,6,7-tetrahydro-5H-pyrazolo[4,3-c]pyridin-5-yl)-5-methyl-2,3-dihydro-1,5-benzoxazepin-4(5H)-one]", "inhibition at 10 µM": 92}, {"compound": "CN1C(=O)[C@@H](N2CCc3cn(Cc4ccccc4)nc3C2=O)COc2ccc(C(N)=O)cc21", "note": "[Example 72, (3S)-3-(2-benzyl-7-oxo-2,4,5,7-tetrahydro-6H-pyrazolo[3,4-c]pyridin-6-yl)-5-methyl-4-oxo-2,3,4,5-tetrahydro-1,5-benzoxazepine-7-carboxamide]", "inhibition at 10 µM": 99}, {"compound": "Cc1nccnc1Cn1nc2c(c1Cl)CCN([C@H]1COc3ccccc3N(C)C1=O)C2=O", "note": "[Example 73, (3S)-3-(3-chloro-2-((3-methylpyrazin-2-yl)methyl)-7-oxo-2,4,5,7-tetrahydro-6H-pyrazolo[3,4-c]pyridin-6-yl)-5-methyl-2,3-dihydro-1,5-benzoxazepin-4(5H)-one]", "inhibition at 10 µM": 91}, {"compound": "CN1C(=O)[C@@H](N2CCc3c(nn(Cc4cnccn4)c3Cl)C2=O)COc2cc(F)ccc21", "note": "[Example 75, (3S)-3-(3-chloro-7-oxo-2-(pyrazin-2-ylmethyl)-2,4,5,7-tetrahydro-6H-pyrazolo[3,4-c]pyridin-6-yl)-8-fluoro-5-methyl-2,3-dihydro-1,5-benzoxazepin-4(5H)-one]", "inhibition at 10 µM": 101}, {"compound": "CN1C(=O)[C@@H](N2CCc3c(nn(Cc4ccccc4)c3Cl)C2=O)COc2ccccc21", "note": "[Example 76, (3S)-3-(2-benzyl-3-chloro-7-oxo-2,4,5,7-tetrahydro-6H-pyrazolo[3,4-c]pyridin-6-yl)-5-methyl-2,3-dihydro-1,5-benzoxazepin-4(5H)-one]", "inhibition at 10 µM": 97}, {"compound": "CN1C(=O)[C@@H](N2CCc3cn(Cc4ccccc4F)nc3C2=O)COc2ccc(C#N)cc21", "note": "[Example 77, (3S)-3-(2-(2-fluorobenzyl)-7-oxo-2,4,5,7-tetrahydro-6H-pyrazolo[3,4-c]pyridin-6-yl)-5-methyl-4-oxo-2,3,4,5-tetrahydro-1,5-benzoxazepine-7-carbonitrile]", "inhibition at 10 µM": 101}, {"compound": "CN1C(=O)[C@@H](N2Cc3c(nn(Cc4ccccc4)c3Cl)C2=O)COc2ccccc21", "note": "[Example 78, (3S)-3-(2-benzyl-3-chloro-6-oxo-2,6-dihydropyrrolo[3,4-c]pyrazol-5(4H)-yl)-5-methyl-2.3-dihydro-1,5-benzoxazepin-4(5H)-one]", "inhibition at 10 µM": 99}, {"compound": "Cc1c2c(nn1Cc1cnccn1)C(=O)N([C@H]1COc3ccccc3N(C)C1=O)CC2", "note": "[Example 79, (3S)-5-methyl-3-(3-methyl-7-oxo-2-(pyrazin-2-ylmethyl)-2,4,5,7-tetrahydro-6H-pyrazolo[3,4-c]pyridin-6-yl)-2,3-dihydro-1,5-benzoxazepin-4(5H)-one]", "inhibition at 10 µM": 100}, {"compound": "CN1C(=O)[C@@H](N2CCc3c(nn(Cc4cnccn4)c3Cl)C2=O)COc2ccccc21", "note": "[Example 80, (3S)-3-(3-chloro-7-oxo-2-(pyrazin-2-ylmethyl)-2,4,5,7-tetrahydro-6H-pyrazolo[3,4-c]pyridin-6-yl)-5-methyl-2,3-dihydro-1,5-benzoxazepin-4(5H)-one]", "inhibition at 10 µM": 101}, {"compound": "CN1C(=O)[C@@H](N2CCc3c(nn(Cc4ccccc4)c3Cl)C2=O)COc2ccc(C(N)=O)cc21", "note": "[Example 81, (3S)-3-(2-benzyl-3-chloro-7-oxo-2,4,5,7-tetrahydro-6H-pyrazolo[3,4-c]pyridin-6-yl)-5-methyl-4-oxo-2,3,4,5-tetrahydro-1,5-benzoxazepine-7-carboxamide]", "inhibition at 10 µM": 101}, {"compound": "O=C1Nc2ccc(Br)cc2OC[C@@H]1N1CCc2c(nn(Cc3ccccc3)c2Cl)C1=O", "note": "[Example 82, (3S)-3-(2-benzyl-3-chloro-7-oxo-2,4,5,7-tetrahydro-6H-pyrazolo[3,4-c]pyridin-6-yl)-8-bromo-2,3-dihydro-1,5-benzoxazepin-4(5H)-one]", "inhibition at 10 µM": 99}, {"compound": "N#Cc1ccc2c(c1)OC[C@H](N1CCc3c(nn(Cc4ccccc4)c3Cl)C1=O)C(=O)N2", "note": "[Example 83, (3S)-3-(2-benzyl-3-chloro-7-oxo-2,4,5,7-tetrahydro-6H-pyrazolo[3,4-c]pyridin-6-yl)-4-oxo-2,3,4,5-tetrahydro-1,5-benzoxazepine-8-carbonitrile]", "inhibition at 10 µM": 92}, {"compound": "Cc1c2c(nn1Cc1ccccc1)C(=O)N([C@H]1COc3cc(Br)ccc3N(C)C1=O)CC2", "note": "[Example 84]", "inhibition at 10 µM": 101}, {"compound": "Cc1c2c(nn1Cc1ccccc1)C(=O)N([C@H]1COc3ccc(C#N)cc3N(C)C1=O)CC2", "note": "[Example 85, (3S)-3-(2-benzyl-3-methyl-7-oxo-2,4,5,7-tetrahydro-6H-pyrazolo[3,4-c]pyridin-6-yl)-5-methyl-4-oxo-2,3,4,5-tetrahydro-1,5-benzoxazepine-7-carbonitrile]", "inhibition at 10 µM": 101}, {"compound": "Cc1c2c(nn1Cc1ccccc1)C(=O)N([C@H]1COc3cc(C#N)ccc3N(C)C1=O)CC2", "note": "[Example 86]", "inhibition at 10 µM": 100}, {"compound": "CN(C)C(=O)c1ccc2c(c1)OC[C@H](N1CCc3c(nn(Cc4ccccc4)c3Cl)C1=O)C(=O)N2C", "note": "[Example 87, (3S)-3-(2-benzyl-3-chloro-7-oxo-2,4,5,7-tetrahydro-6H-pyrazolo[3,4-c]pyridin-6-yl)-N,N,5-trimethyl-4-oxo-2,3,4,5-tetrahydro-1,5-benzoxazepine-8-carboxamide]", "inhibition at 10 µM": 100}, {"compound": "Cc1c2c(nn1Cc1ccccc1)C(=O)N([C@H]1COc3cc(C(N)=O)ccc3N(C)C1=O)CC2", "note": "[Example 88, (3S)-3-(2-benzyl-3-methyl-7-oxo-2,4,5,7-tetrahydro-6H-pyrazolo[3,4-c]pyridin-6-yl)-5-methyl-4-oxo-2,3,4,5-tetrahydro-1,5-benzoxazepine-8-carboxamide]", "inhibition at 10 µM": 101}, {"compound": "CNC(=O)c1ccc2c(c1)N(C)C(=O)[C@@H](N1CCc3c(nn(Cc4ccccc4)c3Cl)C1=O)CO2", "note": "[Example 89, (3S)-3-(2-benzyl-3-chloro-7-oxo-2,4,5,7-tetrahydro-6H-pyrazolo[3,4-c]pyridin-6-yl)-N,5-dimethyl-4-oxo-2,3,4,5-tetrahydro-1,5-benzoxazepine-7-carboxamide]", "inhibition at 10 µM": 101}]}]}
